Experimental data as given in PubChem BioAssay AID1963864 (Molecular Pharmacology Branch, DTP, NCI, 2024).
pIC50: −log10 of the molar value.

System: KRAS PDC multicell spheroid viability
Assay: Anticancer human tumor 521955-158-R6-J3-PDC patient-derived pancreatic carcinoma cell line growth inhibition [KRAS2]
Details: for pIC50: curve of first compound; for viability, T/C: stronger effect = lower value
In short: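 Combination screen of spheroid viability in tumor-cell co-cultures with endothelial (HUVEC) and mesenchymal stem cell stroma. Each agent was tested in half-log dilutions, topping at clinical Cmax or at 10 microM without a known Cmax.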

[1] = second compound 0.1 µM, first compound 0.0316 µM
[2] = second compound 0.1 µM, first compound 0.1 µM
[3] = second compound 0.1 µM, first compound 0.316 µM
[4] = second compound 0.1 µM, first compound 1 µM
[5] = second compound 0.1 µM, first compound 3.16 µM
[6] = second compound 0.1 µM, first compound 10 µM
[7] = second compound 0.316 µM, first compound 0.0316 µM
[8] = second compound 0.316 µM, first compound 0.1 µM
[9] = second compound 0.316 µM, first compound 0.316 µM
[10] = second compound 0.316 µM, first compound 1 µM
[11] = second compound 0.316 µM, first compound 3.16 µM
[12] = second compound 0.316 µM, first compound 10 µM
[13] = second compound 1 µM, first compound 0.0316 µM
[14] = second compound 1 µM, first compound 0.1 µM
[15] = second compound 1 µM, first compound 0.316 µM
[16] = second compound 1 µM, first compound 1 µM
[17] = second compound 1 µM, first compound 3.16 µM
[18] = second compound 1 µM, first compound 10 µM
[19] = second compound 3.16 µM, first compound 0.0316 µM
[20] = second compound 3.16 µM, first compound 0.1 µM
[21] = second compound 3.16 µM, first compound 0.316 µM
[22] = second compound 3.16 µM, first compound 1 µM
[23] = second compound 3.16 µM, first compound 3.16 µM
[24] = second compound 3.16 µM, first compound 10 µM
[25] = second compound 10 µM, first compound 0.0316 µM
[26] = second compound 10 µM, first compound 0.1 µM
[27] = second compound 10 µM, first compound 0.316 µM
[28] = second compound 10 µM, first compound 1 µM
[29] = second compound 10 µM, first compound 3.16 µM
[30] = second compound 10 µM, first compound 10 µM
[31] = second compound 0.1 µM, first compound 0.000316 µM
[32] = second compound 0.1 µM, first compound 0.001 µM
[33] = second compound 0.1 µM, first compound 0.00316 µM
[34] = second compound 0.1 µM, first compound 0.01 µM
[35] = second compound 0.316 µM, first compound 0.000316 µM
[36] = second compound 0.316 µM, first compound 0.001 µM
[37] = second compound 0.316 µM, first compound 0.00316 µM
[38] = second compound 0.316 µM, first compound 0.01 µM
[39] = second compound 1 µM, first compound 0.000316 µM
[40] = second compound 1 µM, first compound 0.001 µM
[41] = second compound 1 µM, first compound 0.00316 µM
[42] = second compound 1 µM, first compound 0.01 µM
[43] = second compound 3.16 µM, first compound 0.000316 µM
[44] = second compound 3.16 µM, first compound 0.001 µM
[45] = second compound 3.16 µM, first compound 0.00316 µM
[46] = second compound 3.16 µM, first compound 0.01 µM
[47] = second compound 10 µM, first compound 0.000316 µM
[48] = second compound 10 µM, first compound 0.001 µM
[49] = second compound 10 µM, first compound 0.00316 µM
[50] = second compound 10 µM, first compound 0.01 µM
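Note: drug exposure lasted seven days.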
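Throughout, for viability, T/C: 100% = DMSO vehicle wells and lower means fewer viable cells.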

Row | Compound | pIC50 (second compound 0.1 µM) | pIC50 (second compound 0.316 µM) | pIC50 (second compound 1 µM) | pIC50 (second compound 3.16 µM) | pIC50 (second compound 10 µM) | viability, T/C [1] [%] | viability, T/C [2] [%] | viability, T/C [3] [%] | viability, T/C [4] [%] | viability, T/C [7] [%] | viability, T/C [8] [%] | viability, T/C [9] [%] | viability, T/C [10] [%] | viability, T/C [13] [%] | viability, T/C [14] [%] | viability, T/C [15] [%] | viability, T/C [19] [%] | viability, T/C [20] [%] | viability, T/C [25] [%] | viability, T/C [26] [%] | other results
1 | CC(C)NCC(C(=O)N1CCN(c2ncnc3c2C(C)CC3O)CC1)c1ccc(Cl)cc1 (stereo not given) + COc1cc2nc(C)nc(NC(C)c3cc(N)cc(C(F)(F)F)c3)c2cc1OC1CCOC1 | < 5.00 | < 5.00 | < 5.00 | < 5.00 | > 7.50 | 96.1 | 90.2 | 76.1 | 84.9 | 83.8 | 79 | 75.7 | 70.3 | 82.3 | 83.8 | 73.5 | 63.3 | 62.1 | 44.1 | 40.2 | viability, T/C [5]: 72.8%; viability, T/C [6]: 71.8%; viability, T/C [11]: 77.7%; viability, T/C [12]: 64.6%; viability, T/C [16]: 69.2%; viability, T/C [17]: 70.5%; viability, T/C [18]: 59.6%; viability, T/C [21]: 67.2%; viability, T/C [22]: 63.7%; viability, T/C [23]: 72.1%; viability, T/C [24]: 67.7%; viability, T/C [27]: 46.1%; viability, T/C [28]: 28.4%; viability, T/C [29]: 27.1%; viability, T/C [30]: 16.7%
2 | CC(C)n1nc(-c2ccc3oc(N)nc3c2)c2c(N)ncnc21 + COc1cc2nc(C)nc(NC(C)c3cc(N)cc(C(F)(F)F)c3)c2cc1OC1CCOC1 | 7.01 | 7.02 | 7.04 | 7.25 | > 9.50 | 63.9 | 49.1 | – | – | 64.6 | 47.3 | – | – | 63 | 46.8 | – | 61.6 | 39.5 | 45.5 | 39.6 | viability, T/C [31]: 96.3%; viability, T/C [32]: 96%; viability, T/C [33]: 79.9%; viability, T/C [34]: 73.8%; viability, T/C [35]: 101%; viability, T/C [36]: 85.9%; viability, T/C [37]: 80%; viability, T/C [38]: 69.6%; viability, T/C [39]: 94.8%; viability, T/C [40]: 87.1%; viability, T/C [41]: 74.8%; viability, T/C [42]: 75.1%; viability, T/C [43]: 64.9%; viability, T/C [44]: 66.8%; viability, T/C [45]: 63.5%; viability, T/C [46]: 60.1%; viability, T/C [47]: 32%; viability, T/C [48]: 24.6%; viability, T/C [49]: 68.8%; viability, T/C [50]: 60.7%
3 | CC1(C)CCC(CN2CCN(c3ccc(C(=O)NS(=O)(=O)c4ccc(NCC5CCOCC5)c([N+](=O)[O-])c4)c(Oc4cnc5[nH]ccc5c4)c3)CC2)=C(c2ccc(Cl)cc2)C1 + COc1cc2nc(C)nc(NC(C)c3cc(N)cc(C(F)(F)F)c3)c2cc1OC1CCOC1 | 5.09 | 5.06 | 5.22 | 5.55 | > 7.50 | 103 | 100 | 91.6 | 107 | 90.8 | 102 | 95.7 | 81.7 | 90.1 | 99.3 | 88.1 | 68.9 | 67.5 | 19.5 | 23.6 | viability, T/C [5]: 77.8%; viability, T/C [6]: 44.3%; viability, T/C [11]: 70.5%; viability, T/C [12]: 47.1%; viability, T/C [16]: 89.5%; viability, T/C [17]: 63.1%; viability, T/C [18]: 40%; viability, T/C [21]: 69.3%; viability, T/C [22]: 74%; viability, T/C [23]: 47.7%; viability, T/C [24]: 30.3%; viability, T/C [27]: 17.3%; viability, T/C [28]: 31.4%; viability, T/C [29]: 18.6%; viability, T/C [30]: 4.55%
4 | CCN1CCN(Cc2ccc(Nc3ncc(F)c(-c4cc(F)c5nc(C)n(C(C)C)c5c4)n3)nc2)CC1 + COc1cc2nc(C)nc(NC(C)c3cc(N)cc(C(F)(F)F)c3)c2cc1OC1CCOC1 | < 6.00 | < 6.00 | < 6.00 | < 6.00 | > 8.50 | 69.7 | 83.9 | 73.7 | 101 | 88.3 | 69.8 | 71.8 | 88.8 | 86.1 | 75.6 | 71.5 | 79.1 | 66.8 | 40.5 | 55.1 | viability, T/C [33]: 105%; viability, T/C [34]: 88%; viability, T/C [37]: 93.8%; viability, T/C [38]: 84.5%; viability, T/C [41]: 90.7%; viability, T/C [42]: 84.1%; viability, T/C [16]: 86.8%; viability, T/C [45]: 87.1%; viability, T/C [46]: 82.1%; viability, T/C [21]: 69.8%; viability, T/C [22]: 77.4%; viability, T/C [49]: 33.4%; viability, T/C [50]: 33.6%; viability, T/C [27]: 17.6%; viability, T/C [28]: 10%
5 | CCNC(=O)CC1N=C(c2ccc(Cl)cc2)c2cc(OC)ccc2-n2c(C)nnc21 (stereo not given) + COc1cc2nc(C)nc(NC(C)c3cc(N)cc(C(F)(F)F)c3)c2cc1OC1CCOC1 | < 5.00 | < 5.00 | < 5.00 | < 5.00 | 7.42 | 91.4 | 87.3 | 75.6 | 75.2 | 95.6 | 103 | 76.3 | 72.4 | 83.7 | 86.2 | 74.1 | 70.8 | 71.3 | 48.7 | 52 | viability, T/C [5]: 70.5%; viability, T/C [6]: 75.8%; viability, T/C [11]: 68.5%; viability, T/C [12]: 73.1%; viability, T/C [16]: 65.6%; viability, T/C [17]: 69.5%; viability, T/C [18]: 66.8%; viability, T/C [21]: 66.5%; viability, T/C [22]: 73.8%; viability, T/C [23]: 60.7%; viability, T/C [24]: 75.4%; viability, T/C [27]: 39.5%; viability, T/C [28]: 34.2%; viability, T/C [29]: 40%; viability, T/C [30]: 28.4%
6 | Cn1ncnc1[C@H]1c2n[nH]c(=O)c3cc(F)cc(c23)N[C@@H]1c1ccc(F)cc1 + COc1cc2nc(C)nc(NC(C)c3cc(N)cc(C(F)(F)F)c3)c2cc1OC1CCOC1 | < 7.00 | < 7.00 | < 7.00 | < 7.00 | > 9.50 | 94 | 93.1 | – | – | 87.3 | 84.2 | – | – | 82.3 | 82.6 | – | 71.8 | 74.9 | 8.29 | 16 | viability, T/C [31]: 96.2%; viability, T/C [32]: 94.9%; viability, T/C [33]: 86.8%; viability, T/C [34]: 87.8%; viability, T/C [35]: 90.5%; viability, T/C [36]: 92.6%; viability, T/C [37]: 86.7%; viability, T/C [38]: 87.8%; viability, T/C [39]: 83.2%; viability, T/C [40]: 78.3%; viability, T/C [41]: 80.5%; viability, T/C [42]: 86.6%; viability, T/C [43]: 68.2%; viability, T/C [44]: 73.9%; viability, T/C [45]: 71.5%; viability, T/C [46]: 72.3%; viability, T/C [47]: 23.4%; viability, T/C [48]: 27.8%; viability, T/C [49]: 9.47%; viability, T/C [50]: 25.1%
